# Patent US20060154889A1, “Polyfluorinated nucleoside analogs and methods of use thereof” (priority 2004, published 2006)
# Read-outs that look alike come from different tables or passages of the source.
# Assays:
# 5′XCGCGCG3′ = assay: Dangling end stacking in 6-bp self-complementary DNA (Table S3); format: physicochemical; details: for ΔG°37 (Van't Hoff) / ΔG°37 (avg.) / ΔG°37 (fits) / ΔH° (van't Hoff) / ΔS° (Van't Hoff) / Tm: 5′XCGCGCG3′ dangling base; for Tm: 1 M NaCl, 10 mM phosphate buffer (pH 7.0), 0.1 mM EDTA, 5.0 μM; for stacks more favorably than parent hydrocarbon: ^FB vs B, ^FI vs I
# Experimental: To seek evidence for the origins of this selectivity, we examined individual properties of the four nonpolar nucleoside analogues. Stacking was evaluated by the standard dangling end approach using a 6-bp self-complementary DNA.
# Calculations. […] (Table 4 and Table 5)
# [1] = Octanol-water partitioning of free nucleosides
# Experimental: We explicitly examined hydrophobicity of the four nucleosides by partitioning between 1-octanol and water.
# Octanol-water partitioning. The experimental solvent partitioning studies for free nucleosides were carried out as described. Experiments were carried out in triplicate and the results averaged to increase accuracy.
# XGTAGCTAC = assay: Dangling-end thermal denaturation, sequence XGTAGCTAC (Table 2); format: physicochemical
# Experimental: (§1) The dangling-end experimental method was utilized to evaluate the ability of the fluorinated aromatic base analogues to stabilize DNA duplexes when substituted directly adjacent to the helix. The relative stabilizations were measured by comparison of the energetics for helix—coil melting transition of the “core “duplex (lacking any “dangling “nucleotide) to that containing the extra nucleotide. Five short self-complementary sequence contexts were used; the sequences were chosen because they had been shown previously to be well-behaved thermodynamically in the dangling-end configuration. Data from two of the contexts are shown in Table 1, and data for the remaining three show similar trends. By use of these five contexts we were able to compare stacking effects of the base analogues with all four neighboring DNA bases in the helix.
# (§2) Methods for thermodynamic measurements. Thermal denaturation. […] Solutions were then heated to 90° C. for 5 minutes and annealed by slowly cooling to room temperature and then to 0° C.
# (dCGCGCG)2 core duplex = assay: Dangling-end thermal denaturation, sequence XCGCGCG (Table 1); format: physicochemical; details: for ΔΔG stacking (stability contributed): (dCGCGCG)2 core duplex; for Tm / −ΔG37 / −ΔH / −ΔS / ΔΔG stacking / ΔTm: XCGCGCG; for Tm: 1 M NaCl, 10 mM sodium phosphate pH 7.0, 5.0 μM DNA-strand; for ΔΔG stacking: difference from core duplex; for ΔTm: vs core duplex
# Experimental: (§3) The dangling-end experimental method was utilized to evaluate the ability of the fluorinated aromatic base analogues to stabilize DNA duplexes when substituted directly adjacent to the helix. The relative stabilizations were measured by comparison of the energetics for helix-coil melting transition of the “core “duplex (lacking any “dangling “nucleotide) to that containing the extra nucleotide. Five short self-complementary sequence contexts were used; the sequences were chosen because they had been shown previously to be well-behaved thermodynamically in the dangling-end configuration. Data from two of the contexts are shown in Table 1, and data for the remaining three show similar trends. By use of these five contexts we were able to compare stacking effects of the base analogues with all four neighboring DNA bases in the helix. Methods for thermodynamic measurements. Thermal denaturation. […] Solutions were then heated to 90° C. for 5 minutes and annealed by slowly cooling to room temperature and then to 0° C. […] Calculations.
# XTGAGCTCA = assay: Dangling-end thermal denaturation, sequence XTGAGCTCA (Table 2); format: physicochemical
# Experimental: as §1, §2
# XACAGCTGT = assay: Dangling-end thermal denaturation, sequence XACAGCTGT (Table 1); format: physicochemical; details: for Tm: 1 M NaCl, 10 mM sodium phosphate pH 7.0, 5.0 μM DNA-strand; for ΔΔG stacking: difference from core duplex; for ΔTm: vs core duplex
# Experimental: as §3
# XAGCGCT = assay: Dangling-end thermal denaturation, sequence XAGCGCT (Table 2); format: physicochemical
# Experimental: as §1, §2
# [2] = average from fits to individual melting curves
# [3] = 2,4,6- vs 2,4,5-substituted case
Compound,−H (XGTAGCTAC; marker c) [kcal],−S (XGTAGCTAC; marker c) [eu],Tm ((dCGCGCG)2 core duplex) [°C],−ΔG37 ((dCGCGCG)2 core duplex; Van't Hoff plots) [kcal],−ΔH ((dCGCGCG)2 core duplex; Van't Hoff plots) [kcal],−ΔS ((dCGCGCG)2 core duplex; Van't Hoff plots) [eu],−ΔG37 ((dCGCGCG)2 core duplex; [2]) [kcal],ΔΔG stacking ((dCGCGCG)2 core duplex),ΔTm ((dCGCGCG)2 core duplex) [°C],−G37 (XTGAGCTCA; marker c) [kcal],−H (XTGAGCTCA; marker c) [kcal],−S (XTGAGCTCA; marker c) [eu],−G37 (XTGAGCTCA; marker d) [kcal],Tm (XACAGCTGT) [°C],−ΔG37 (XACAGCTGT; Van't Hoff plots) [kcal],−ΔH (XACAGCTGT; Van't Hoff plots) [kcal],−ΔS (XACAGCTGT; Van't Hoff plots) [eu],−ΔG37 (XACAGCTGT; [2]) [kcal],ΔΔG stacking (XACAGCTGT),ΔTm (XACAGCTGT) [°C],further results
"1′,2′-dideoxy-β-1′-(N-indole)-D-ribofuranose [reference compound]",,,,,,,,,,,,,,,,,,,,,"ΔG°37 (Van't Hoff) (5′XCGCGCG3′): -10.2 ± 0.3 kcal; ΔG°37 (avg.) (5′XCGCGCG3′): -10.0 ± 0.2 kcal; ΔG°37 (fits) (5′XCGCGCG3′): -9.9 ± 0.1 kcal; ΔH° (van't Hoff) (5′XCGCGCG3′): -60.2 kcal; ΔS° (Van't Hoff) (5′XCGCGCG3′): −161 eu; Tm (5′XCGCGCG3′): 51.6 °C; log P ([1]; free nucleoside, 1-octanol and water, triplicate): 0.99 (0.10)"
"OC[C@H]1OC(c2ccc(F)cc2)C[C@@H]1O (stereo partly drawn) [4-fluorophenyl, 1′-(4-fluorophenyl)-2′-deoxy-D-ribose]",,,51.2,10.3 ± 0.3,64.9,175,9.9 ± 0.2,2.0 ± 0.2,9.8,,,,,48.7,9.9 ± 0.1,66.6,183,9.6 ± 0.1,1.8 ± 0.1,8.7,
"OC[C@H]1O[C@@H](n2ccc3c(F)c(F)c(F)c(F)c32)C[C@@H]1O [^FI, 1′,2′-dideoxy-β-1′-(N-4,5,6,7-tetrafluoroindole)-D-ribofuranose]",,,,,,,,,,,,,,,,,,,,,ΔG°37 (Van't Hoff) (5′XCGCGCG3′): -11.1 ± 0.2 kcal; ΔG°37 (avg.) (5′XCGCGCG3′): -11.2 ± 0.2 kcal; ΔG°37 (fits) (5′XCGCGCG3′): -11.3 ± 0.2 kcal; ΔH° (van't Hoff) (5′XCGCGCG3′): -52.6 kcal; ΔS° (Van't Hoff) (5′XCGCGCG3′): −134 eu; Tm (5′XCGCGCG3′): 59.3 °C; stacks more favorably than parent hydrocarbon (5′XCGCGCG3′): 1.1 kcal/mol; log P [1]: 1.66 (0.10)

# Second part, led by results:
−H (XGTAGCTAC; marker c) [kcal],−S (XGTAGCTAC; marker c) [eu],Tm ((dCGCGCG)2 core duplex) [°C],−ΔG37 ((dCGCGCG)2 core duplex; Van't Hoff plots) [kcal],−ΔH ((dCGCGCG)2 core duplex; Van't Hoff plots) [kcal],−ΔS ((dCGCGCG)2 core duplex; Van't Hoff plots) [eu],−ΔG37 ((dCGCGCG)2 core duplex; [2]) [kcal],ΔΔG stacking ((dCGCGCG)2 core duplex),ΔTm ((dCGCGCG)2 core duplex) [°C],−G37 (XTGAGCTCA; marker c) [kcal],−H (XTGAGCTCA; marker c) [kcal],−S (XTGAGCTCA; marker c) [eu],−G37 (XTGAGCTCA; marker d) [kcal],Tm (XACAGCTGT) [°C],−ΔG37 (XACAGCTGT; Van't Hoff plots) [kcal],−ΔH (XACAGCTGT; Van't Hoff plots) [kcal],−ΔS (XACAGCTGT; Van't Hoff plots) [eu],−ΔG37 (XACAGCTGT; [2]) [kcal],ΔΔG stacking (XACAGCTGT),ΔTm (XACAGCTGT) [°C],Compound,further results
57.0,156,53.9,10.3 ± 0.2,53.8,93,10.2 ± 0.2,2.2 ± 0.2,12.6,9.1,51.9,138,9.2,50.9,10.7 ± 0.2,76.3,212,9.8 ± 0.2,2.3 ± 0.2,10.0,"OC[C@H]1O[C@@H](c2cc(F)c(F)c(F)c2F)C[C@@H]1O [2,3,4,5-tetrafluorophenyl, 1′,2′-dideoxy-β-1′-(2,3,4,5-tetrafluorophenyl)-D-ribofuranose]",G stacking (XGTAGCTAC): 1.7; −G37 (XGTAGCTAC; marker c): 8.8 kcal; −G37 (XGTAGCTAC; marker d): 8.8 kcal; ΔG°37 (Van't Hoff) (5′XCGCGCG3′): -10.3 ± 0.2 kcal; ΔG°37 (avg.) (5′XCGCGCG3′): -10.2 ± 0.2 kcal; ΔG°37 (fits) (5′XCGCGCG3′): -10.2 ± 0.2 kcal; ΔH° (van't Hoff) (5′XCGCGCG3′): -53.8 kcal; ΔS° (Van't Hoff) (5′XCGCGCG3′): −93 eu; Tm (5′XCGCGCG3′): 53.9 °C; stacks more favorably than parent hydrocarbon (5′XCGCGCG3′): 1.0 kcal/mol; log P [1]: 1.39 (0.10); ΔΔG stacking (stability contributed) ((dCGCGCG)2 core duplex): −2.2 kcalmol^−1; G stacking (XTGAGCTCA): 1.5; G stacking (XAGCGCT): 1.4; −G37 (XAGCGCT; marker c): 8.3 kcal; −H (XAGCGCT; marker c): 48.4 kcal; −S (XAGCGCT; marker c): 129 eu; −G37 (XAGCGCT; marker d): 8.3 kcal
72.5,204,52.2,10.1 ± 0.3,55.0,145,10.0 ± 0.1,2.0 ± 0.2,10.8,9.2,53.8,144,9.1,48.9,10.1 ± 0.2,67.8,186,9.7 ± 0.1,1.9 ± 0.2,9.0,"OCC1OC(c2cc(F)c(F)cc2F)CC1O (stereo not drawn) [2,4,5-trifluorophenyl]",−G37 (XGTAGCTAC; marker d): 9.1 kcal; G stacking (XTGAGCTCA): 1.5
52.5,142,45.3,8.4 ± 0.2,37.3,104,8.6 ± 0.1,0.4 ± 0.1,4.0,8.8,46.7,122,9.0,47.8,9.3 ± 0.2,53.6,143,9.4 ± 0.2,1.3 ± 0.2,7.9,"OC[C@H]1O[C@@H](c2c(F)cc(F)cc2F)C[C@@H]1O [2,4,6-trifluorophenyl, 1′,2′-dideoxy-β-1′-(2,4,6-trifluorophenyl)-D-ribofuranose]",−G37 (XGTAGCTAC; marker c): 8.4 kcal; change in Tm stabilization on moving one fluorine from ortho to meta position ((dCGCGCG)2 core duplex; [3]): 6.8; change in stabilization free energy on moving one fluorine from ortho to meta position ((dCGCGCG)2 core duplex; [3]): 1.6 kcal; G stacking (XTGAGCTCA): 1.3
56.5,155,44.2,8.5 ± 0.2,39.1,99,8.7 ± 0.1,0.5 ± 0.2,2.9,8.7,48.6,128,8.9,47.3,9.3 ± 0.0,55.2,148,9.3 ± 0.2,1.3 ± 0.1,7.0,"OC[C@H]1O[C@@H](c2c(F)c(F)c(F)c(F)c2F)C[C@@H]1O [pentafluorophenyl, 1′,2′-dideoxy-β-1′-(pentafluorophenyl)-D-ribofuranose]",ΔΔG stacking (stability contributed) ((dCGCGCG)2 core duplex): −0.5 kcalmol^−1; G stacking (XAGCGCT): 0.9; −G37 (XAGCGCT; marker c): 7.9 kcal; −H (XAGCGCT; marker c): 45.0 kcal; −S (XAGCGCT; marker c): 120 eu
